Test results: publication PMC5218480 (PLoS ONE, 2017)

Test system: MV-4-11 cells
Assay: Gene expression microarray analysis (Affymetrix PrimeView) and GSEA
Type: cell-based, human
Set-up: RFU PODN (11730768_x_at) / Fold change /veh PODN (11730768_x_at) / RFU LINC00158 (11744669_a_at) / Fold change /veh LINC00158 (11744669_a_at) / RFU DUSP10 (11751237_a_at) / Fold change /veh DUSP10 (11751237_a_at) / RFU ID3 (11757404_x_at) / Fold change /veh ID3 (11757404_x_at) / RFU PLEKHG5 (11737974_s_at) / Fold change /veh PLEKHG5 (11737974_s_at) / RFU LRRC4B (11730491_at) / Fold change /veh LRRC4B (11730491_at) / RFU GIMAP4 (11747438_a_at) / Fold change /veh GIMAP4 (11747438_a_at) / RFU KRT8 (11758183_x_at) / Fold change /veh KRT8 (11758183_x_at) / RFU CNN1 (11734310_a_at) / Fold change /veh CNN1 (11734310_a_at) / RFU VPS37D (11726825_at) / Fold change /veh VPS37D (11726825_at) / RFU C10orf10 (11716522_x_at) / Fold change /veh C10orf10 (11716522_x_at) / RFU KIR2DL2 /// KIR2DL4 /// KIR2DL5A /// KIR2DL5B /// KIR2DS1 /// KIR2DS2 /// KIR2DS3 /// KIR2DS4 /// KIR3DL3 /// KIR3DL3 /// KIR3DS1 (11738374_at) / Fold change /veh KIR2DL2 /// KIR2DL4 /// KIR2DL5A /// KIR2DL5B /// KIR2DS1 /// KIR2DS2 /// KIR2DS3 /// KIR2DS4 /// KIR3DL3 /// KIR3DL3 /// KIR3DS1 (11738374_at) / RFU C1QL1 (11718748_at) / Fold change /veh C1QL1 (11718748_at) / RFU TMPRSS4 (11747572_a_at) / Fold change /veh TMPRSS4 (11747572_a_at) / RFU HAMP (11756126_x_at) / Fold change /veh HAMP (11756126_x_at) / RFU RNFT2 (11725882_a_at) / Fold change /veh RNFT2 (11725882_a_at) / RFU NR4A2 (11747474_a_at) / Fold change /veh NR4A2 (11747474_a_at) / RFU ABCC12 (11746883_a_at) / Fold change /veh ABCC12 (11746883_a_at) / RFU TMEM136 (11760407_x_at) / Fold change /veh TMEM136 (11760407_x_at) / RFU CLDN22 /// WWC2 (11732394_at) / Fold change /veh CLDN22 /// WWC2 (11732394_at) / RFU HLA-DPB1 (11760878_x_at) / Fold change /veh HLA-DPB1 (11760878_x_at) / RFU SPINT1 (11716480_a_at) / Fold change /veh SPINT1 (11716480_a_at) / RFU GAP43 (11754022_s_at) / Fold change /veh GAP43 (11754022_s_at) / RFU A4GNT (11735810_at) / Fold change /veh A4GNT (11735810_at) / RFU PRB3 (11715151_x_at) / Fold change /veh PRB3 (11715151_x_at) / RFU TUBB4B (11761932_at) / Fold change /veh TUBB4B (11761932_at) / RFU CAPN14 (11732068_a_at) / Fold change /veh CAPN14 (11732068_a_at) / RFU TMCC2 (11721928_a_at) / Fold change /veh TMCC2 (11721928_a_at) / RFU IRGQ (11745062_a_at) / Fold change /veh IRGQ (11745062_a_at) / RFU FAM174B (11720279_a_at) / Fold change /veh FAM174B (11720279_a_at) / RFU TMPRSS4 (11748680_a_at) / Fold change /veh TMPRSS4 (11748680_a_at) / RFU FAM212B (11763350_a_at) / Fold change /veh FAM212B (11763350_a_at) / RFU PLEKHG5 (11743358_a_at) / Fold change /veh PLEKHG5 (11743358_a_at) / RFU ZSCAN30 (11745921_a_at) / Fold change /veh ZSCAN30 (11745921_a_at) / RFU CMKLR1 (11741424_a_at) / Fold change /veh CMKLR1 (11741424_a_at) / RFU LOC101060620 /// MAPK8IP1 (11723275_at) / Fold change /veh LOC101060620 /// MAPK8IP1 (11723275_at) / RFU SPTSSB (11747773_x_at) / Fold change /veh SPTSSB (11747773_x_at) / RFU PRSS12 (11739890_at) / Fold change /veh PRSS12 (11739890_at) / RFU BIN1 (11741810_x_at) / Fold change /veh BIN1 (11741810_x_at) / RFU WNT11 (11732464_a_at) / Fold change /veh WNT11 (11732464_a_at) / RFU C10orf10 (11716521_a_at) / Fold change /veh C10orf10 (11716521_a_at) / RFU C5orf56 (11738089_at) / Fold change /veh C5orf56 (11738089_at) / RFU CYB561 (11721691_x_at) / Fold change /veh CYB561 (11721691_x_at) / RFU ANKRD19P (11752326_a_at) / Fold change /veh ANKRD19P (11752326_a_at) / RFU OR2T12 /// OR2T33 /// OR2T8 (11738714_s_at) / Fold change /veh OR2T12 /// OR2T33 /// OR2T8 (11738714_s_at) / RFU VCAN (11748164_a_at) / Fold change /veh VCAN (11748164_a_at) / RFU JSRP1 (11732532_at) / Fold change /veh JSRP1 (11732532_at) / RFU KRTAP10-11 (11738290_x_at) / Fold change /veh KRTAP10-11 (11738290_x_at) / RFU MYO3A (11730013_a_at) / Fold change /veh MYO3A (11730013_a_at) / RFU EBF3 (11725865_a_at) / Fold change /veh EBF3 (11725865_a_at) / RFU CAMK2N1 (11719241_x_at) / Fold change /veh CAMK2N1 (11719241_x_at) / RFU C5orf56 (11738088_a_at) / Fold change /veh C5orf56 (11738088_a_at) / RFU OLFML3 (11715873_a_at) / Fold change /veh OLFML3 (11715873_a_at) / RFU LOC100653217 /// NTM (11731650_a_at) / Fold change /veh LOC100653217 /// NTM (11731650_a_at) / RFU MAPK11 (11762145_a_at) / Fold change /veh MAPK11 (11762145_a_at) / RFU FIZ1 (11724087_x_at) / Fold change /veh FIZ1 (11724087_x_at) / RFU OASL (11726364_x_at) / Fold change /veh OASL (11726364_x_at) / RFU SOX15 (11748057_x_at) / Fold change /veh SOX15 (11748057_x_at) / RFU CD79A (11719716_a_at) / Fold change /veh CD79A (11719716_a_at) / RFU HIST1H1D (11736915_at) / Fold change /veh HIST1H1D (11736915_at) / RFU CASKIN2 (11723855_a_at) / Fold change /veh CASKIN2 (11723855_a_at) / RFU LOC730098 (11760151_x_at) / Fold change /veh LOC730098 (11760151_x_at) / RFU OR4N2 (11742367_at) / Fold change /veh OR4N2 (11742367_at) / RFU PRRT2 (11749266_a_at) / Fold change /veh PRRT2 (11749266_a_at) / RFU SNX32 (11753110_a_at) / Fold change /veh SNX32 (11753110_a_at) / RFU CDHR5 (11726645_a_at) / Fold change /veh CDHR5 (11726645_a_at) / RFU RCAN1 (11760418_a_at) / Fold change /veh RCAN1 (11760418_a_at) / RFU FAM167A (11723789_a_at) / Fold change /veh FAM167A (11723789_a_at) / RFU FAM26E (11764081_at) / Fold change /veh FAM26E (11764081_at) / RFU ISYNA1 (11749810_s_at) / Fold change /veh ISYNA1 (11749810_s_at) / RFU ACY1 (11761880_at) / Fold change /veh ACY1 (11761880_at) / RFU 11764098_at / Fold change /veh 11764098_at / RFU SAMD14 (11745864_x_at) / Fold change /veh SAMD14 (11745864_x_at) / RFU NPB (11741838_a_at) / Fold change /veh NPB (11741838_a_at) / RFU TMPRSS6 (11731388_a_at) / Fold change /veh TMPRSS6 (11731388_a_at) / RFU KRTAP10-2 (11738614_at) / Fold change /veh KRTAP10-2 (11738614_at) / RFU ARHGAP8 /// PRR5-ARHGAP8 (11727945_x_at) / Fold change /veh ARHGAP8 /// PRR5-ARHGAP8 (11727945_x_at) / RFU KRTAP5-7 /// NADSYN1 (11734609_at) / Fold change /veh KRTAP5-7 /// NADSYN1 (11734609_at) / RFU RASL12 (11751679_a_at) / Fold change /veh RASL12 (11751679_a_at) / RFU CDKN2B (11736163_a_at) / Fold change /veh CDKN2B (11736163_a_at) / RFU PRF1 (11729649_at) / Fold change /veh PRF1 (11729649_at) / RFU, ZNF638 /// ZNF638-IT1 / Fold change vs veh, ZNF638 /// ZNF638-IT1 / RFU, PANK3 / Fold change vs veh, PANK3 / RFU, SH3YL1 / Fold change vs veh, SH3YL1 / RFU, ZEB2 / Fold change vs veh, ZEB2 / RFU, NRIP1 / Fold change vs veh, NRIP1 / RFU, PTTG1IP / Fold change vs veh, PTTG1IP / RFU, CAPN2 / Fold change vs veh, CAPN2 / RFU, MED14 / Fold change vs veh, MED14 / RFU, SNORA58 / Fold change vs veh, SNORA58 / RFU, C1orf63 / Fold change vs veh, C1orf63 / RFU, LRRFIP1 / Fold change vs veh, LRRFIP1 / RFU, NDUFAF7 / Fold change vs veh, NDUFAF7 / RFU, SLC12A2 / Fold change vs veh, SLC12A2 / RFU, IBTK / Fold change vs veh, IBTK / RFU, ESF1 / Fold change vs veh, ESF1 / Fold change vs veh, TMEM50B / RFU, TAOK1 / Fold change vs veh, TAOK1 / RFU, ACBD3 / Fold change vs veh, ACBD3 / RFU, TMA16 / Fold change vs veh, TMA16 / RFU, RWDD3 / Fold change vs veh, RWDD3 / RFU, BCAT1 / Fold change vs veh, BCAT1 / RFU, EDEM3 / Fold change vs veh, EDEM3 / RFU, TMEM33 / Fold change vs veh, TMEM33 / RFU, WDR75 / Fold change vs veh, WDR75 / RFU, AHCTF1 / Fold change vs veh, AHCTF1 / RFU, TFRC / Fold change vs veh, TFRC / RFU, ZDHHC17 / Fold change vs veh, ZDHHC17 / RFU, NOM1 / Fold change vs veh, NOM1 / RFU, ARL8B / Fold change vs veh, ARL8B / RFU, ZBTB11 / Fold change vs veh, ZBTB11 / RFU, TAMM41 / Fold change vs veh, TAMM41 / RFU, KIAA1704 /// LOC100996395 / Fold change vs veh, KIAA1704 /// LOC100996395 / RFU, ING1 / Fold change vs veh, ING1 / RFU, TRMT61B / Fold change vs veh, TRMT61B / RFU, FUBP3 / Fold change vs veh, FUBP3 / RFU, TP53 / Fold change vs veh, TP53 / RFU, TNKS2 / Fold change vs veh, TNKS2 / RFU, ZFP14 / Fold change vs veh, ZFP14 / RFU, ACTR2 / Fold change vs veh, ACTR2 / RFU, PPP3R1 / Fold change vs veh, PPP3R1 / RFU, PIK3R1 / Fold change vs veh, PIK3R1 / RFU, HNRNPA1 / Fold change vs veh, HNRNPA1 / RFU, RNF170 / Fold change vs veh, RNF170 / RFU, ZNF28 / Fold change vs veh, ZNF28 / RFU, RNGTT / Fold change vs veh, RNGTT / RFU, OGT / Fold change vs veh, OGT / RFU, BRD1 / Fold change vs veh, BRD1 / RFU, MARS / Fold change vs veh, MARS / RFU, ZNF655 / Fold change vs veh, ZNF655 / RFU, FAHD1 / Fold change vs veh, FAHD1 / RFU, BDP1 / Fold change vs veh, BDP1 / RFU, LRRCC1 / Fold change vs veh, LRRCC1 / RFU, ARID1A / Fold change vs veh, ARID1A / RFU, ZNF146 / Fold change vs veh, ZNF146 / RFU, ZNF330 / Fold change vs veh, ZNF330 / RFU, GPN3 / Fold change vs veh, GPN3 / RFU, C9orf123 / Fold change vs veh, C9orf123 / RFU, N4BP2L2 / Fold change vs veh, N4BP2L2 / RFU, ARFIP1 / Fold change vs veh, ARFIP1 / RFU, FAM179B / Fold change vs veh, FAM179B / RFU, BCL10 / Fold change vs veh, BCL10 / RFU, UHRF1BP1L / Fold change vs veh, UHRF1BP1L / RFU, BET1 / Fold change vs veh, BET1 / RFU, CNOT2 / Fold change vs veh, CNOT2 / RFU, ZNF268 / Fold change vs veh, ZNF268 / Fold change vs veh, ZNF507 / RFU, DGCR2 / Fold change vs veh, DGCR2 / RFU, WDSUB1 / Fold change vs veh, WDSUB1 / Fold change vs veh, HSP90B1 /// MIR3652 / RFU, ADSS / Fold change vs veh, ADSS / RFU, GK / Fold change vs veh, GK / RFU, ZNF148 / Fold change vs veh, ZNF148 / RFU, TAF9 / Fold change vs veh, TAF9 / RFU, SLC1A5 / Fold change vs veh, SLC1A5 / RFU, SLMO2 / Fold change vs veh, SLMO2 / RFU, ABCC4 / Fold change vs veh, ABCC4 / RFU, LOC101060439 /// RAP1B / Fold change vs veh, LOC101060439 /// RAP1B / RFU, RFX7 / Fold change vs veh, RFX7 / RFU, GTPBP10 / Fold change vs veh, GTPBP10 / RFU, CNEP1R1 / Fold change vs veh, CNEP1R1 / RFU, BIVM-ERCC5 /// ERCC5 / Fold change vs veh, BIVM-ERCC5 /// ERCC5 / RFU, ILF3 / Fold change vs veh, ILF3 / RFU 11762660_at / Fold change /veh 11762660_at / RFU VCAN (11757783_s_at) / Fold change /veh VCAN (11757783_s_at) / RFU DDX43 (11728927_at) / Fold change /veh DDX43 (11728927_at) / RFU KRT8 (11758188_x_at) / Fold change /veh KRT8 (11758188_x_at) / RFU NKD1 (11759106_at) / Fold change /veh NKD1 (11759106_at) / RFU SRD5A1 (11742802_a_at) / Fold change /veh SRD5A1 (11742802_a_at) / RFU TPSAB1 /// TPSB2 (11721975_s_at) / Fold change /veh TPSAB1 /// TPSB2 (11721975_s_at) / RFU GSTM3 (11746129_a_at) / Fold change /veh GSTM3 (11746129_a_at) / RFU IL23R (11737362_x_at) / Fold change /veh IL23R (11737362_x_at) / RFU TMEM51 (11727254_a_at) / Fold change /veh TMEM51 (11727254_a_at) / RFU PIWIL2 (11732686_x_at) / Fold change /veh PIWIL2 (11732686_x_at) / RFU ORM1 (11744905_x_at) / Fold change /veh ORM1 (11744905_x_at) / RFU CCDC152 (11743942_at) / Fold change /veh CCDC152 (11743942_at) / RFU ECM1 (11717891_a_at) / Fold change /veh ECM1 (11717891_a_at) / RFU IL23R (11748794_a_at) / Fold change /veh IL23R (11748794_a_at) / RFU TNFAIP8L3 (11732012_x_at) / Fold change /veh TNFAIP8L3 (11732012_x_at) / RFU MBOAT4 (11741988_at) / Fold change /veh MBOAT4 (11741988_at) / RFU 11764193_at / Fold change /veh 11764193_at / RFU TMEM53 (11763286_at) / Fold change /veh TMEM53 (11763286_at) / RFU MAGEB2 (11727129_at) / Fold change /veh MAGEB2 (11727129_at) / RFU TMEM200A (11744735_a_at) / Fold change /veh TMEM200A (11744735_a_at) / RFU CCDC152 (11751479_a_at) / Fold change /veh CCDC152 (11751479_a_at) / RFU FAM211A (11726209_a_at) / Fold change /veh FAM211A (11726209_a_at) / RFU RGS16 (11746705_a_at) / Fold change /veh RGS16 (11746705_a_at) / RFU VCAN (11755009_s_at) / Fold change /veh VCAN (11755009_s_at) / RFU RHOB (11743442_s_at) / Fold change /veh RHOB (11743442_s_at) / RFU RGS16 (11720943_a_at) / Fold change /veh RGS16 (11720943_a_at) / RFU RGS16 (11720944_at) / Fold change /veh RGS16 (11720944_at) / RFU, VPS4B / Fold change vs veh, VPS4B / RFU, CREB1 / Fold change vs veh, CREB1 / RFU, DNAJC13 / Fold change vs veh, DNAJC13 / RFU, GNAQ / Fold change vs veh, GNAQ / RFU, CDK5R1 / Fold change vs veh, CDK5R1 / RFU, ZRANB3 / Fold change vs veh, ZRANB3 / RFU, CUL4A / Fold change vs veh, CUL4A / RFU, CCNY / Fold change vs veh, CCNY / RFU, UFL1 / Fold change vs veh, UFL1 / RFU, COG3 / Fold change vs veh, COG3 / RFU, DIAPH2 / Fold change vs veh, DIAPH2 / RFU, SKA2 / Fold change vs veh, SKA2 / RFU, AFF3 / Fold change vs veh, AFF3 / RFU, LMF1 / Fold change vs veh, LMF1 / RFU, IPO11 / Fold change vs veh, IPO11 / RFU, DFFB / Fold change vs veh, DFFB / RFU, FOXP1 / Fold change vs veh, FOXP1 / RFU, CARD8 / Fold change vs veh, CARD8 / RFU, STRN3 / Fold change vs veh, STRN3 / RFU, ADK / Fold change vs veh, ADK / RFU, RASSF2 / Fold change vs veh, RASSF2 / RFU, WIPF1 / Fold change vs veh, WIPF1 / RFU, LARP1B / Fold change vs veh, LARP1B / RFU, RASA1 / Fold change vs veh, RASA1 / RFU, RB1 / Fold change vs veh, RB1 / RFU, PPFIA1 / Fold change vs veh, PPFIA1 / RFU, MAT2A / Fold change vs veh, MAT2A / RFU, CCT5 / Fold change vs veh, CCT5 / RFU, WDR92 / Fold change vs veh, WDR92 / RFU, CUX1 / Fold change vs veh, CUX1 / RFU, TTC7A / Fold change vs veh, TTC7A / RFU, TMEM135 / Fold change vs veh, TMEM135 / RFU, DEPTOR / Fold change vs veh, DEPTOR / RFU, CPM / Fold change vs veh, CPM / RFU, DNAJB6 / Fold change vs veh, DNAJB6 / RFU, CACNA2D3 / Fold change vs veh, CACNA2D3 / RFU, DTX4 / Fold change vs veh, DTX4 / RFU, TFCP2 / Fold change vs veh, TFCP2 / RFU, GMCL1 /// GMCL1P1 / Fold change vs veh, GMCL1 /// GMCL1P1 / RFU, AEBP2 / Fold change vs veh, AEBP2 / RFU, SNHG1 /// SNORD22 /// SNORD25 /// SNORD26 /// SNORD27 /// SNORD28 /// SNORD29 /// SNORD31 / Fold change vs veh, SNHG1 /// SNORD22 /// SNORD25 /// SNORD26 /// SNORD27 /// SNORD28 /// SNORD29 /// SNORD31 / Fold change (Aza/veh), C12orf56 (ProbeSet 11735607_a_at) / Fold change (ACY-1035/veh), C12orf56 (ProbeSet 11735607_a_at) / Fold change (Aza/veh), FGFR1OP (ProbeSet 11751329_s_at) / Fold change (ACY-1035/veh), FGFR1OP (ProbeSet 11751329_s_at) / Fold change (Aza/veh), VPS36 (ProbeSet 11739960_a_at) / Fold change (ACY-1035/veh), VPS36 (ProbeSet 11739960_a_at) / RFU SYPL1 (11715823_x_at) / Fold change /veh SYPL1 (11715823_x_at) / RFU IGFBP7 (11715501_s_at) / Fold change /veh IGFBP7 (11715501_s_at) / RFU REEP3 (11722064_at) / Fold change /veh REEP3 (11722064_at) / RFU IGLL1 (11728026_x_at) / Fold change /veh IGLL1 (11728026_x_at): dose or concentration left out as unconfirmed
Conditions: ProbeSet 11720270_a_at; LIST B

Nc1ncn([C@@H]2O[C@H](CO)[C@@H](O)[C@H]2O)c(=O)n1 [azacitidine]
Fold change vs veh, IBTK: 0.96
